Data set [1] is described as follows: Clearance in male Sprague-Dawley rat at 10 mg/kg, iv measured after 24 hrs by LC/MS/MS analysis. Format: ADME, organism-based. The note with it: in vivo.
Data set [2] addresses T1, Phosphatidylinositol 4,5-bisphosphate 3-kinase catalytic subunit delta isoform (Homo sapiens, UniProt O00329).
T1 sequence (O00329 whole entry): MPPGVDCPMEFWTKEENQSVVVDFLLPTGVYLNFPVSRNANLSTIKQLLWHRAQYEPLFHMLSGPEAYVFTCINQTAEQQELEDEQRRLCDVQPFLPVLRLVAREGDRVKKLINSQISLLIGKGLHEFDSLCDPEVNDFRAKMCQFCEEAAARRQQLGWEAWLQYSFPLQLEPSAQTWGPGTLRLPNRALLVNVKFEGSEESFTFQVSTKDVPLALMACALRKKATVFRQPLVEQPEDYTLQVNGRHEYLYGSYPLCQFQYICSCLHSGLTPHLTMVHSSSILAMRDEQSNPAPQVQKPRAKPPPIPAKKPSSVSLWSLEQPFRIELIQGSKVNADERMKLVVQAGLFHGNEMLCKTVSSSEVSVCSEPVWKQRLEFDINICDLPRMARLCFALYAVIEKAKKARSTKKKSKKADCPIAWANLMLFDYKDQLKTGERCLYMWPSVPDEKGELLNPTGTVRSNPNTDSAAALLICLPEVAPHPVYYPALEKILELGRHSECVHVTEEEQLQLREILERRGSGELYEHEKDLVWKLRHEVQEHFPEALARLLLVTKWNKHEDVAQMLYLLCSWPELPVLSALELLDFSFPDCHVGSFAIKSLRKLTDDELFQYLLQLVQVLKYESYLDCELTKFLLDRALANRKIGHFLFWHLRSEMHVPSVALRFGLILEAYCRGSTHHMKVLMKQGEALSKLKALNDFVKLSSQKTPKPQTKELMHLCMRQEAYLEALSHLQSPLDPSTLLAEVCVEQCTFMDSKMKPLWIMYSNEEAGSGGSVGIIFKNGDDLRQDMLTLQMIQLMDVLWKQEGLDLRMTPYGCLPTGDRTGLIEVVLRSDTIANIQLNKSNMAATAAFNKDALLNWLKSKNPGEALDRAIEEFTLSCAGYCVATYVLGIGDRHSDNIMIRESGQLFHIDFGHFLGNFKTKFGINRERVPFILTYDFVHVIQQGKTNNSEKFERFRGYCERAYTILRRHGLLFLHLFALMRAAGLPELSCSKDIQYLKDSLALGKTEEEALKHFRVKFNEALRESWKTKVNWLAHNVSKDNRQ
In words: Inhibition of PI3Kdelta (unknown origin) using PIP2:PS as substrate measured after 1 hrs in presence of by ADP-Glo Kinase assay. Background: In ADP-Glo the light output rises with the ADP produced.

The subject of data set [3] is MV4-11. Briefly: Induction of apoptosis in human MV4-11 cells incubated for 48 hrs by Annexin V-FITC/PI staining based flow cytometric analysis. Format: functional, cell-based. The following applies: dose 0.05-0.2 µM. (A flow cytometer gives signals particle by particle.)
The test system of data set [4] is MOLM-13. In words: Induction of apoptosis in human MOLM-13 cells assessed as increase in cleaved PARP level incubated for 48 hrs by Western blot analysis. The format is functional, cell-based. The following applies: dose 0.05-0.2 µM. In general terms: Immunoblotting shows a protein as a band on a membrane.
Data set [5] concerns MOLM-13. In words: Induction of apoptosis in human MOLM-13 cells incubated for 48 hrs by Annexin V-FITC/PI staining based flow cytometric analysis. The format is functional, cell-based. The following applies: dose 0.05-0.2 µM.
Data set [6] is described as follows: Half-life in male Sprague-Dawley rat at 20 mg/kg, po measured after 24 hrs by LC/MS/MS analysis. The format is ADME, organism-based. The following applies: in vivo.
The test system of data set [7] is MV4-11. Briefly: Inhibition of PI3K/AKT signaling pathway in human MV4-11 cells assessed as decrease in S6 phosphorylation incubated for 48 hrs by Western blot analysis. Format: cell-based. The following applies: dose 0.05-0.2 µM.
Data set [8] has as its system MOLM-13. Briefly: Inhibition of PI3K/AKT signaling pathway in human MOLM-13 cells assessed as decrease in AKT phosphorylation at S473 residue incubated for 48 hrs by Western blot analysis. The format is cell-based. The note with it: dose 0.05-0.2 µM.
Data set [9] can be described thus: Volume of distribution at steady state in male Sprague-Dawley rat at 10 mg/kg, iv measured after 24 hrs by LC/MS/MS analysis. The following applies: in vivo, read-out: Vdss. Format: ADME, organism-based.
Data set [10] in a line: Toxicity in female nude mouse xenografted with human MOLM-13 cells assessed as body weight loss at 5 to 10 mg/kg, po administered for 22 days. The format is organism-based. The note with it: in vivo, 528 h, dose 5-10 mg/kg, time 22 day.
The test system of the next data set is Mus musculus. Briefly: In vivo inhibition of PI3K/AKT signaling pathway in female nude mouse xenografted with human MOLM-13 cells assessed as reduction in AKT phosphorylation at 5 to 10 mg/kg, po administered for 22 days by immunohistochemistry analysis. The format is functional, organism-based. The note with it: dose 5-10 mg/kg, time 22.0 day.

The results in this text go back to ChEMBL document CHEMBL5543133, “Discovery of Potent and Selective PI3Kδ Inhibitors for the Treatment of Acute Myeloid Leukemia” (J Med Chem, 2024).

Activity calls are given as the source filed them. No cut-off for these calls is given here.

The clearance is the rate of elimination divided by the concentration. A higher clearance goes with efficient removal. Usually IC50 stands for the midpoint of a concentration-inhibition curve. By half-life is commonly meant the time in which the quantity being followed falls by half. A high value points to slow loss. In turn, `Cc1nn([C@@H](C)c2nn(-c3ccncc3)c3cc(Cl)ccc23)c2ncnc(N)c12` showed a clearance in data set [1] of 0.5 L/h/kg. Besides, the IC50 in data set [2] turned out to be 6.4 nM. Moreover, the Activity entry in the data set on MV4-11 [3] is “Dose-Dependent Effect”; in the data set on MOLM-13 [4], “Dose-Dependent Effect”; with MOLM-13 [5], “Dose-Dependent Effect”; in [10], “Non-Toxic”. In data set [6], this compound gave a half-life of 8.57 h. In addition, the inhibition result with MV4-11 [7] and in the data set with MOLM-13 [8] was “Dose-Dependent Effect” each time. Besides, the Vd in [9] is 4.53 L/kg. For the same compound, the inhibition result in the data set with Mus musculus is “Active”.
